What all share (experiment): NCI tumour cell line growth inhibition, 48 h
Test [1] relates to KM12 colon.
In test [2] the test system is SF-539 CNS.
For test [3], the system named is SK-OV-3 ovarian.
In test [4] the test system is SNB-19 CNS.
For test [5], the system named is MOLT-4 leukemia.
The subject of test [6] is UO-31 renal.
Test [7] concerns NCI-H460 lung.
The test system of test [8] is CCRF-CEM leukemia.
Test [9] deals with DU-145 prostate.
Test [10] concerns SR leukemia.

Experimental findings from PubChem BioAssay (NCI) are described below.

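Exposure lasted 48 hours, with cells grown in 96-well plates and compounds tested at five concentrations. GI50 is the concentration that inhibits growth by half. TGI: concentration producing complete growth inhibition.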

`O=C1/C(=C\c2cccc(Oc3ccccc3)c2)SC(c2ccccc2)N1c1cccc([N+](=O)[O-])c1` (stereo not drawn): the TGI was greater than 100 µM in test [1]; 63.3 µM in test [2]; greater than 100 µM in [3]; greater than 100 µM in [4]; greater than 100 µM in [5]; greater than 100 µM in [6]. The TGI was greater than 100 µM in test [7], 81.2 µM in [8], greater than 100 µM in test [9] and greater than 100 µM in test [10].
On to `COc1ccc(C(=O)c2ccc(-n3cc(/C=C/[N+](=O)[O-])c4ccccc43)cc2)cc1`, for which the TGI in [1] was 55.2 µM; in [2], 31.3 µM; in test [3], greater than 71.3 µM; in test [4], greater than 72.4 µM; in test [5], greater than 100 µM; in test [6], 37.1 µM. Also, the TGI in [7] was greater than 66.1 µM; in test [8], greater than 20.2 µM; in test [9], greater than 51.2 µM; in test [10] it was greater than 100 µM.
`CC1=C2NCN(C)N=C2C(C#N)(C#N)C1(C#N)C#N`: the TGI in test [1] was greater than 100 µM; in test [2] it was 64.4 µM; in test [3], greater than 100 µM; in [4] it was greater than 95.2 µM; in [5] it was 9.87 µM; in [6], 36.7 µM. For the same compound, the TGI is 7.86 µM in test [8], greater than 75 µM in test [9] and 35.8 µM in test [10].
In the case of `O=C(CSc1nc2ccc(I)cc2c(=O)n1Cc1ccccc1)NN1C(=O)CCC1=O`, the TGI in test [1], in test [2], in [3], in [4], in test [5] and in [7] was greater than 100 µM throughout. In addition, the TGI in [8], in [9] and in test [10] was greater than 100 µM throughout.
Take `COC(=O)c1ccc(/C=C2\CCc3ccccc3C2=O)cc1`: the TGI in [1], in test [2], in test [3], in [4], in [5] and in test [6] was greater than 100 µM each time. The TGI in test [7], in test [8], in test [9] and in test [10] was greater than 100 µM in each case.
As for `CC(=O)c1ccc(NC(=O)CSc2nc(C)nc3c2sc(=S)n3-c2ccccc2)cc1`, the TGI in test [1] is greater than 3.16 µM; in test [2] it was greater than 3.16 µM; in [3] it was greater than 3.16 µM; in test [4] it was greater than 3.16 µM; in test [5], greater than 3.16 µM; in [6] it was greater than 10 µM. Also, the TGI in [7], in [8], in test [9] and in [10] was greater than 3.16 µM in each case.
In the case of `c1ccc([P+](c2ccccc2)(c2ccccc2)c2ccc([P+](c3ccccc3)(c3ccccc3)c3ccccc3)cc2)cc1`, the TGI in [1] is greater than 100 µM; in test [2], 81.5 µM; in [3], greater than 100 µM; in test [4], greater than 100 µM; in [5], greater than 100 µM; in test [6], greater than 100 µM. Further, the TGI in [7], in [8], in test [9] and in [10] was greater than 100 µM in each case.
For the compound `O=c1oc2ccc(Cl)cc2cc1-c1cn2ccsc2n1`, the TGI in test [1], in test [2], in [3], in test [4], in [5] and in [6] was greater than 100 µM in each case. Further, the TGI in [7] is greater than 100 µM; in [8], 78.3 µM; in test [9], greater than 100 µM; in [10] it was greater than 100 µM.
Take `O=S1(=O)CCN(c2ccccc2CC(c2c[nH]c3ccccc23)c2c[nH]c3ccccc23)CC1`: the TGI is 13.5 µM in test [1]; 32 µM in [2]; greater than 79 µM in [3]; greater than 100 µM in test [4]; 8.87 µM in [5]; 72 µM in test [6]. For the same compound, the TGI in test [7] is 13 µM; in test [8], 11.1 µM; in [9], 35.4 µM; in test [10], 20.1 µM.
Take `CCN(CC)CCN(C)CCc1ccc(Br)cc1`: the TGI in test [1], in [2], in [3], in test [4], in [5] and in test [6] was greater than 100 µM each time. The TGI in test [7], in test [8], in [9] and in test [10] was greater than 100 µM in each case.
As for `COc1cc(-n2cc(-c3cc(O)c(C/C=C(\C)CCC=C(C)C)c(O)c3)nn2)cc2c1O[C@]1(C)CC[C@@H](O)C(C)(C)[C@H]1C2`, the GI50 is 2.47 µM in test [1]; 0.0664 µM in test [2]; 2.3 µM in test [3]; 1.89 µM in [4]; 0.0671 µM in test [5]; 0.365 µM in test [6]. Further, the GI50 in test [7] is 1.13 µM; in test [8], 0.194 µM; in test [9], 2.3 µM; in test [10] it was 0.0317 µM. The TGI in test [1] amounted to 31.9 µM; in [2], 1.76 µM; in test [3], 33.3 µM; in [4], 40.3 µM; in test [5], 1.36 µM; in test [6], 1.96 µM. For the same compound, the TGI in test [7] is 14.9 µM; in test [8], greater than 43.3 µM; in test [9], 26.3 µM; in [10], greater than 100 µM.
As to `CC1=C2C(=O)c3ccccc3C(=O)[C@H]2C[C@@H](N2CCCCCC2=O)O1`, the TGI in test [1] was 30.7 µM; in test [2], 33.7 µM; in test [3], greater than 100 µM; in test [4], 39.2 µM; in test [5], 58.5 µM; in test [6] it was 33.3 µM. Besides, the TGI in test [7] stood at 33.3 µM; in [8], 20.3 µM; in test [9], 32.3 µM; in [10], 25.7 µM.
Take `CO[P@]1(=O)O[C@@H](c2ccccc2)[C@H](O)[C@@]1(O)c1ccccc1`: the TGI in [1], in test [2], in [3], in [4], in test [5] and in [6] was greater than 100 µM each time. For the same compound, the TGI in test [7], in [8], in [9] and in test [10] was greater than 100 µM in each case.
